Data reported in patent US20260248769A1, “URINATION DISORDER-A[…]” (priority 2023, published 2026).

Assays:
urethra of normal rats = test: Measurement of LPP (urethral pressure) in normal rats; type: in vivo, rat; conditions: spinal cord transected female rats, subcutaneous; acotiamide 30 to 300 mg/kg, distigmine 0.1 mg/kg, bethanechol 3 mg/kg (FIG. 7)
Method: Using female rats (strain: Crl:CD (SD), 9 weeks old, Jackson Laboratory Japan, Inc.), under isoflurane anesthesia, the spinal cord was transected at the Th8 vertebra, and after ligating and excising the ureters, a catheter (Becton Dickinson: PE-90, PE-50) was inserted and fixed at the bladder dome to prepare the measurement animal. Physiological saline was injected from the catheter, and the maximum intravesical pressure (leak point pressure (LPP)) when leaking from the external urethral opening was recorded by PowerLab (ADInstruments). Changes in leak point pressure when distigmine (0.1 mg/kg), bethanechol (3 mg/kg), acotiamide (30 to 300 mg/kg), or a vehicle was subcutaneously administered (5 mL/kg) were measured.

normal rats = test: Uroflowmetry (urine flow rate measurement) in normal rats; type: in vivo, rat; conditions: normal male rats, subcutaneous, measured for 12 hours; acotiamide 30, 100, 200 mg/kg, distigmine 0.1 mg/kg (FIG. 5)
Method: Changes in urine flow rate when distigmine (0.1 mg/kg), acotiamide (30, 100, and 200 mg/kg) or vehicle was subcutaneously administered (5 mL/kg) to male rats (strain: Crl:CD (SD), 8 weeks old, Jackson Laboratory Japan, Inc.) were measured for 12 hours. Changes in urine flow rate were recorded using PowerLab (ADInstruments) by placing a digital balance under the voiding measurement cage to cumulatively collect excreted urine in a container on the balance and measure the change in weight.

[1] = tested on: pelvic nerve crush (PNC) rats; test: Cystometry in underactive bladder model (pelvic nerve crush, PNC) rats; type: in vivo, rat; conditions: PNC female rats, subcutaneous; for detrusor muscle contraction pressure: awake, measured for 60 minutes, acotiamide 30 to 200 mg/kg, distigmine 0.1 mg/kg (FIG. 12); for drug tolerability at the highest dose: highest dose acotiamide 200 mg/kg, distigmine 0.3 mg/kg
Method: Under isoflurane anesthesia, female rats (strain: Crl:CD (SD), 8 weeks old, Jackson Laboratory Japan, Inc.) were subjected to pelvic nerve injury surgery to prepare pelvic nerve crush (PNC) rats. Cystometry was performed while awake, 2 to 4 weeks after surgery. A polyethylene catheter (PE50) for cystometry was inserted into the bladder and indwellingly placed. The catheter indwelling in the bladder was connected to a pressure transducer (Nihon Kohden Corporation) to measure the intravesical pressure. Physiological saline was injected into the bladder using an infusion pump, and changes in intravesical pressure were recorded in a polygraph system (RMT-1000, Nihon Kohden Corporation) (RMT-1000 MG, Miyuki Giken Co., Ltd.) and an analysis system (Lab Chart Pro, ADInstruments).
Changes in detrusor muscle contraction pressure when distigmine (0.01 to 0.3 mg/kg), acotiamide (3 to 200 mg/kg), or vehicle was subcutaneously administered (5 mL/kg) to PNC rats were measured for 60 minutes.

[2] = tested on: bladder M3 receptor (Chrm3); test: Bladder M3 receptor expression (real-time PCR Chrm3, Western blotting CHRM3) after repeated administration; type: in vivo, rat; conditions: subcutaneous twice daily for two weeks; for Relative gene expression of Chrm3 (Mean ± SE): bladder of normal male rats, real-time PCR, acotiamide 200 mg/kg/day, distigmine 0.2 mg/kg/day; for expression level of the bladder M3 receptor after repeated administration: normal male rats, acotiamide 100 mg/kg, distigmine 0.1 mg/kg per dose (Table 1, FIG. 13)
Method: Distigmine (0.1 mg/kg), acotiamide (100 mg/kg), or vehicle was subcutaneously administered twice daily for two weeks (5 mL/kg per dose) to normal rats (male, strain: Crl:CD (SD), 8 weeks old, Jackson Laboratory Japan, Inc.), and the bladder was collected. The M3 receptor expression level in the collected bladder was examined by gene quantitative analysis by real-time PCR (Chrm3) and protein expression analysis by Western blotting (CHRM3).

bladder of normal rats = test: Cystometry (detrusor muscle contraction pressure measurement) in normal rats; type: in vivo; conditions: normal male rats, subcutaneous; for bladder contraction pressure during voiding / maximum contraction pressure during voiding: 0 to 90 minutes after administration, acotiamide 30 to 200 mg/kg; for bladder contraction pressure during voiding: distigmine 0.01 to 0.1 mg/kg (FIG. 3); for maximum contraction pressure during voiding: distigmine 0.01 to 0.1 mg/kg (FIG. 4); for bladder compliance: 0 to 90 minutes, acotiamide up to 200 mg/kg, distigmine 0.01 to 0.1 mg/kg (FIG. 6); for tolerability in the cystometry test at the highest dose: highest dose acotiamide 200 mg/kg, distigmine 0.3 mg/kg
Method: A polyethylene catheter (PE50) for cystometry was inserted into and indwellingly placed in the bladder of male rats (strain: Crl:CD (SD), 8 weeks old, Jackson Laboratory Japan, Inc.). The catheter indwelling in the bladder was connected to a pressure transducer (Nihon Kohden Corporation) to measure the intravesical pressure. Physiological saline was injected into the bladder using an infusion pump, and changes in intravesical pressure were recorded on a polygraph system (RMT-1000, Nihon Kohden Corporation) and an analysis system (Lab Chart Pro, ADInstruments). Changes in detrusor muscle contraction pressure when distigmine (0.01 to 0.3 mg/kg), acotiamide (3 to 200 mg/kg), or vehicle was subcutaneously administered (5 ml/kg) were measured for 90 minutes.

[3] = tested on: female rats under urethane anesthesia; test: Test for confirming tolerability: induction of cholinergic crisis; type: in vivo, rat; conditions: up to 120 minutes; for induction of cholinergic crisis (hypersecretion, respiratory abnormalities): urethane anesthesia, subcutaneous, distigmine 0.1-0.4 mg/kg, acotiamide 200 and 300 mg/kg
[4] = tested on: partial BOO rats exhibiting overactive bladder; test: Cystometry in partial bladder outlet obstruction (BOO) rats: voiding interval and frequency of NVC; type: in vivo, rat; conditions: for NVC frequency compared with the β3 agonist single administration group: co-administered with mirabegron 3 mg/kg i.v., distigmine 0.1 mg/kg or acotiamide 200 mg/kg s.c. (FIG. 15); for voiding interval, effect of a single agent: up to 2 hours, distigmine 0.1 mg/kg s.c., acotiamide 100 and 200 mg/kg s.c., mirabegron 3 mg/kg i.v. (FIG. 14)
Method: Under isoflurane anesthesia, female rats (strain: Crl:CD (SD), 6 weeks old, Jackson Laboratory Japan, Inc.) were subjected to bladder outlet obstruction surgery to prepare partial bladder outlet obstruction (BOO) rats. The sham-operated group was operated similarly except for the partial BOO. Six weeks after surgery, cystometry was performed while awake. A polyethylene catheter (Becton Dickinson: PE50) for cystometry was inserted into and indwellingly placed in the bladder. The catheter indwelling in the bladder was connected to a pressure transducer (Nihon Kohden Corporation) to measure the intravesical pressure. Physiological saline was injected into the bladder using a syringe pump and changes in intravesical pressure were recorded in PowerLab (ADInstruments).
Distigmine (0.1 mg/kg), acotiamide (100 and 200 mg/kg) or vehicle was subcutaneously administered (5 ml/kg), or a β3-adrenergic receptor agonist (β3 agonist mirabegron, a therapeutic agent for overactive bladder) (3 mg/kg) was intravenously administered (1 mL/kg), and the voiding interval was measured for up to 2 hours.
The β3 agonist mirabegron (3 mg/kg, intravenous administration [1 mL/kg]) was co-administered with distigmine (0.1 mg/kg) or acotiamide (200 mg/kg) by subcutaneous administration (5 mL/kg), and the frequency of NVC was measured.

[5] = tested on: bladder of normal guinea pigs; test: Cystometry and urine flow rate measurement in normal guinea pigs; type: in vivo, guinea pig; conditions: male guinea pigs, intravenous, 0 to 30 minutes, acotiamide 0.1 to 10 mg/kg; for bladder contraction pressure during voiding: distigmine 1 mg/kg (FIG. 8); for maximum contraction pressure during voiding: distigmine 1 mg/kg (FIG. 9); for urine flow rate (maximum urine flow rate and average urine flow rate): distigmine 1 mg/kg (FIG. 10, FIG. 11)
Method: A polyethylene catheter (Becton Dickinson: PE50) was inserted into and fixed to the bladder of a guinea pig (male, strain: Slc: Hartley, 7 weeks old, Japan SLC, Inc.). A catheter indwellingly placed in the bladder was connected to a pressure transducer to measure intravesical pressure. Physiological saline was injected into the bladder using an infusion pump and intravesical pressure was recorded in PowerLab (ADInstruments). The urine flow rate was recorded in PowerLab (ADInstruments) by placing a digital balance under the cage to cumulatively collect excreted urine in a container on the balance and measure the change in weight. Changes in the detrusor muscle contraction pressure and the urine flow rate when distigmine (1 mg/kg), acotiamide (0.1 to 10 mg/kg), or a vehicle was intravenously administered (1 mL/kg) were measured for 30 minutes.

[6] = tested on: patients with underactive bladder; conditions: in combination with an α1-receptor blocker, cited from earlier work

Row | SMILES | leak point pressure (urethral pressure) (urethra of normal rats) | urine flow rate (normal rats) | detrusor muscle contraction pressure [1] | drug tolerability at the highest dose [1] | Relative gene expression of Chrm3 (Mean ± SE) [2] | expression level of the bladder M3 receptor after repeated administration [2] | bladder contraction pressure during voiding (bladder of normal rats) | maximum contraction pressure during voiding (bladder of normal rats) | bladder compliance (bladder of normal rats) | tolerability in the cystometry test at the highest dose (bladder of normal rats) | induction of cholinergic crisis (hypersecretion, respiratory abnormalities) [3] | NVC frequency compared with the β3 agonist single administration group [4] | voiding interval, effect of a single agent [4] | bladder contraction pressure during voiding [5] | maximum contraction pressure during voiding [5] | urine flow rate (maximum urine flow rate and average urine flow rate) [5] | other results
1 | CC(C[N+](C)(C)C)OC(N)=O (stereo not drawn) [bethanechol] | increase |  |  |  |  |  |  |  |  |  |  |  |  |  |  |  | 
2 | CN(CCCCCCN(C)C(=O)Oc1ccc[n+](C)c1)C(=O)Oc1ccc[n+](C)c1 [Distigmine] | did not change | decreased | increased | cholinergic crisis | 79.1 ± 11.8 | reduced | increased | increased | significantly reduced | induced cholinergic crisis | induced | increased | significantly shortened | increased | increased | decreased | death (animals) ([3]; 0.2 mg/kg subcutaneous): 1 out of 3; death (animals) ([3]; 0.3 mg/kg subcutaneous): 5 out of 6; death (animals) ([3]; 0.4 mg/kg subcutaneous): 3 out of 3
3 | COc1cc(O)c(C(=O)Nc2nc(C(=O)NCCN(C(C)C)C(C)C)cs2)cc1OC [Acotiamide, N-[2-[bis(1-methylethyl)amino]ethyl]-2-[(2-hydroxy-4,5-dimethoxybenzoyl)amino]thiazole-4-carboxamide] | did not change | increasing | increased | good tolerability | 107.0 ± 12.9 | did not reduce | increased | increased | did not affect | well tolerated | did not induce | similar | had no effect | increased | increased | increasing | action on the detrusor muscle contraction pressure, 200 mg/kg group compared with 30 and 100 mg/kg groups ([1]; 200 mg/kg): extremely strong; action on bladder contraction pressure, 200 mg/kg group compared with 30 and 100 mg/kg groups (bladder of normal rats; 200 mg/kg): extremely strong; decrease in residual urine volume ([6]; 100 mg orally 3 times a day for 2 weeks): a sufficient decrease in residual urine volume was not obtained; mean value of residual urine volume after administration ([6]; 100 mg orally three times a day for two weeks): ≥ 100 mL; death cases ([3]; 200 and 300 mg/kg subcutaneous): no death cases
4 | Nc1nc(CC(=O)Nc2ccc(CCNC[C@H](O)c3ccccc3)cc2)cs1 [mirabegron] |  |  |  |  |  |  |  |  |  |  |  |  | had no effect |  |  |  | 
